Test results as given in patent publication US20060079552A1, “1-[2-(4-benzyl-4-hydroxy-piperidin-1-yl)-ethyl]-3-(2-methyl-quinolin-4-yl)-urea salt” (priority 2004, published 2006).
Converted amounts (≈) assume the structure as drawn. Where a name gives a salt, the structure may show the parent alone. Values belong to the molecule of their own block, whether it stands above or below them.

Experiments:
[1] = Solubility in water and aqueous phosphate buffer pH 7; format: physicochemical; settings: for Solubility Buffer pH 7 (phosphate, 100 mM): aqueous phosphate buffer pH 7, 100 mM
Protocol: Solubility was measured in water and aqueous phosphate buffer (pH=7, 100 mM). Results are expressed as mg dissolved compound per mL solvent.

[2] = Pharmacokinetic assessment after oral (gavage) administration in rats; format: in vivo, male Wistar rats; settings: for mean exposure, area under the curve (AUC0-inf.): oral (gavage) 10 mg per kg, male Wistar rats, blood samples over 24 h
Protocol: The pharmacokinetic parameters after oral (gavage) administration of 10 mg per kg of 1-[2-(4-benzyl-4-hydroxy-piperidin-1-yl )-ethyl]-3-(2-methyl-quinolin-4-yl )-urea given as free base or sulfate salt have been determined in male Wistar rats. Blood samples were taken over a time period of 24 h after dosing and analysed with a specific and sensitive liquid chromatography-mass-spectrometry (LC-MS/MS) method. Pharmacokinetic parameters were calculated using a non-compartmental method. The mean exposure of 1-[2-(4-benzyl-4-hydroxy-piperidin-1-yl)-ethyl]-3-(2-methyl-quinolin-4-yl)-urea, expressed as area under the curve (AUC0-inf.), after administration of compound I as free base was 194 ng*h/mL. The mean exposure of 1-[2-(4-benzyl-4-hydroxy-piperidin-1-yl )-ethyl]-3-(2-methyl-quinolin-4-yl )-urea expressed as area under the curve (AUC0-inf.), after administration of the compound described in Example 1 was 396 ng*h/mL.

[3] = Hygroscopicity, static method (European Pharmacopoeia Technical Guide), weight increase in humidity cabinet; format: physicochemical; settings: for Increase in weight (Δm): after exposure to 79% RH for 24 h, RT
Protocol: Hygroscopicity was evaluated using the static method according to European Pharmacopoeia Technical Guide. Weight increase of the compound was observed when stored in a humidity cabinet at RT/79% RH for 24 h.

[4] = biological target: T1, urotensin II receptor (Homo sapiens, UniProt Q9UKP6); settings: Clozel et al., J. Pharmcol. Exp. Ther. 2004, 311, 204-212; cited from earlier work
T1 sequence (Q9UKP6 1-389): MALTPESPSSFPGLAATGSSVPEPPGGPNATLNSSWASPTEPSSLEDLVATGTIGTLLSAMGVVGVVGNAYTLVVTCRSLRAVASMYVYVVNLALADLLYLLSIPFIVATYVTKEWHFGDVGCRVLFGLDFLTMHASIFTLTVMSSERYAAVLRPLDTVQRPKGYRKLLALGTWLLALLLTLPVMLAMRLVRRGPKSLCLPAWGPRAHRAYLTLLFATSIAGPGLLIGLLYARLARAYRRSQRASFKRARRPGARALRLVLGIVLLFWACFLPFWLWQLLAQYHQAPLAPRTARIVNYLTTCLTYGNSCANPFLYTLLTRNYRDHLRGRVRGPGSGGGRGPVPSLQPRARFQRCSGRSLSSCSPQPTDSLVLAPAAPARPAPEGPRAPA

[5] = Stress test / behaviour at higher temperature and higher humidity; format: physicochemical
Protocol: NMR spectra were recorded on a Varian Mercury 300VX NMR Spectrometer. The spectra are referenced to tetramethylsilane as external standard. X-ray diffraction patterns (XRD) were recorded on a Bruker D5000, using a CU-Kalpha (1.5418 Å) source, a 40 kV-30 mA generator, in a range of 3 et 40° (2theta). Stress test studies were done by exposing samples in open and closed glass bottles to the following conditions: 60° C./80% RH (8 weeks) and 80° C./RH not controlled (48 h).

SMILES: Cc1cc(NC(=O)NCCN2CCC(O)(Cc3ccccc3)CC2)c2ccccc2n1 [Compound I, 1-[2-(4-Benzyl-4-hydroxy-piperidin-1-yl)-ethyl]-3-(2-methyl-quinolin4-yl)-urea]
Solubility Buffer pH 7 (phosphate, 100 mM) [1]: 0.31 mg/mL
Solubility water ([1]; water): 0.8 mg/mL (≈ 1910 µM)
solubility in water at pH 7 (in words) ([1]; water at pH 7): slightly soluble
mean exposure, area under the curve (AUC0-inf.) ([2]; listed as compound I as free base): 194 ng·h/mL
bioavailability after oral dosing ([2]; rat, oral dosing): low bioavailability
hygroscopicity (in words) [3]: hygroscopic
Increase in weight (Δm) ([3]; listed as Compound I as free base): 8%
urotensin II receptor antagonism [4]: potent urotensin II receptor antagonist
agglomeration [5]: agglomerates to a substance cake
colour stability [5]: its colour changes at higher temperature and higher humidity

SMILES: Cc1cc(NC(=O)NCCN2CCC(O)(Cc3ccccc3)CC2)c2ccccc2n1 [Example 1, 1-[2-(4-Benzyl-4-hydroxy-piperidin-1-yl)-ethyl]-3-(2-methyl-quinolin-4-yl)-urea sulfate]
mean exposure, area under the curve (AUC0-inf.) ([2]; sulfate): 396 ng·h/mL

SMILES: Cc1cc(NC(=O)NCCN2CCC(O)(Cc3ccccc3)CC2)c2ccccc2n1.O=C(O)CC(O)(CC(=O)O)C(=O)O [Example 6, 1-[2-(4-Benzyl-4-hydroxy-piperidin-1-yl)-ethyl]-3-(2-methyl-quinolin-4-yl)-urea citrate]
solubility ([1]; water): 17.8 mg/mL

Continued, values first:

Solubility Buffer pH 7 (phosphate, 100 mM) ([1]; sulfate): 27 mg/mL
Solubility water ([1]; water, sulfate): 11.3 mg/mL
Increase in weight (Δm) ([3]; sulfate): 4%
SMILES: Cc1cc(NC(=O)NCCN2CCC(O)(Cc3ccccc3)CC2)c2ccccc2n1 [Example 2, 1-[2-(4-Benzyl-4-hydroxy-piperidin-1-yl)-ethyl]-3-(2-methyl-quinolin-4-yl)-urea sulfate]

Solubility water ([1]; water, malate): >101 mg/mL
SMILES: Cc1cc(NC(=O)NCCN2CCC(O)(Cc3ccccc3)CC2)c2ccccc2n1 [Example 5, 1-[2-(4-Benzyl-4-hydroxy-piperidin-1-yl)-ethyl]-3-(2-methyl-quinolin-4-yl)-urea malate]
